Experimental findings from patent US20160271263A1 (Novo Nordisk A/S, priority 2010, published 2016) are described below.

Numbered stars: 1 amine (or outer) side, 2 acyl side, 3 side chain; on linkers, the order of the positions; unused ones are H or OH. Side chains are listed from the residue outwards. Peptide text beside a SMILES is read from it. * marks the point of attachment. C18 diacid = O=C(O)CCCCCCCCCCCCCCCCC(=O)*; γGlu = O=C(O)[C@H](CCC(=O)[*:2])N[*:1]; AEEA = NCCOCCOCC(=O)O

glucagon receptor, sequence (P47871 26-477): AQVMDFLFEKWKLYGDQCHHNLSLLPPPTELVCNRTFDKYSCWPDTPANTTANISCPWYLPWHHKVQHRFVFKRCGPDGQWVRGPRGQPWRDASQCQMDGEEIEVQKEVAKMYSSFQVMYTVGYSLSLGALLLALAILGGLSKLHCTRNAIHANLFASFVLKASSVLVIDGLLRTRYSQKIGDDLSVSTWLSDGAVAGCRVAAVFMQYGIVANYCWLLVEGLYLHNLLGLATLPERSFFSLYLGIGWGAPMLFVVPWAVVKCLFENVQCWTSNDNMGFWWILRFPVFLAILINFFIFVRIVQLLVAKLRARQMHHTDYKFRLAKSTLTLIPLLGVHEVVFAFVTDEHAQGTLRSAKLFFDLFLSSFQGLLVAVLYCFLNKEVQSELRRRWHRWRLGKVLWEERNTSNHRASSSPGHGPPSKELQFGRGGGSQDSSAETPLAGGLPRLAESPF

The experiment has as its target glucagon receptor (Homo sapiens, UniProt P47871). Nature of the experiment: cell-based.
Procedure: The cells (14000 per well) were incubated (37° C., 5% CO2) overnight in 384-well plates. Next day the cells were loaded with a calcium responsive dye that only distributed into the cytoplasm. Probenecid, an inhibitor of the organic anion transporter, was added to prevent the dye from leaving the cell. A PDE inhibitor was added to prevent formatted cAMP from being degraded. […] End point data were collected after 6 minutes. An increase in intracellular cAMP was proportional to an increased in calcium concentrations in the cytoplasm. […] EC50-values were calculated in Prism5.
The EC50 is the concentration giving half of the maximal effect. High values mean weaker potency, low ones greater potency. For the molecule `CC(C)C[C@H](NC(=O)[C@H](Cc1ccc(O)cc1)NC(=O)[C@H](CCCCN)NC(=O)[C@H](CO)NC(=O)[C@H](Cc1ccc(O)cc1)NC(=O)[C@H](CC(=O)O)NC(=O)[C@H](CO)NC(=O)[C@@H](NC(=O)[C@H](Cc1ccccc1)NC(=O)[C@@H](NC(=O)CNC(=O)[C@H](CCC(N)=O)NC(=O)[C@H](CO)NC(=O)[C@@H](N)Cc1c[nH]cn1)[C@@H](C)O)[C@@H](C)O)C(=O)N[C@@H](CC(=O)O)C(=O)N[C@@H](CCCCNC(=O)CC[C@H](NC(=O)CC[C@H](NC(=O)COCCOCCNC(=O)COCCOCCNC(=O)CC[C@H](NC(=O)CCCCCCCCCCCCCCCCC(=O)O)C(=O)O)C(=O)O)C(=O)O)C(=O)N[C@@H](CCCNC(=N)N)C(=O)N[C@@H](CCCNC(=N)N)C(=O)N[C@@H](C)C(=O)N[C@@H](CCC(N)=O)C(=O)N[C@@H](CC(=O)O)C(=O)N[C@@H](Cc1ccccc1)C(=O)N[C@H](C(=O)N[C@@H](CCC(N)=O)C(=O)N[C@@H](Cc1c[nH]c2ccccc12)C(=O)N[C@@H](CC(C)C)C(=O)N[C@@H](CC(C)C)C(=O)N[C@@H](CC(N)=O)C(=O)N[C@H](C(=O)O)[C@@H](C)O)C(C)C` [Example 70, N^ε16-[(4S)-4-carboxy-4-[[(4S)-4-carboxy-4-[[2-[2-[2-[[2-[2-[2-[[(4S)-4-carboxy-4-(17-carboxyheptadecanoylamino)butanoyl]amino]ethoxy]ethoxy]acetyl]amino]ethoxy]ethoxy]acetyl]amino]butanoyl]amino]butanoyl]-[Lys^16,Leu^27]-Glucagon] (H-HSQGTFTSDYSKYLDK([γGlu-γGlu-AEEA-AEEA-γGlu-C18 diacid])RRAQDFVQWLLNT-OH; N-terminus and C-terminus assumed), the response was half-maximal at 0.105 nM (EC50).

Take `CC(C)C[C@H](NC(=O)[C@H](Cc1ccc(O)cc1)NC(=O)[C@H](CCCCN)NC(=O)[C@H](CO)NC(=O)[C@H](Cc1ccc(O)cc1)NC(=O)[C@H](CC(=O)O)NC(=O)[C@H](CO)NC(=O)[C@@H](NC(=O)[C@H](Cc1ccccc1)NC(=O)[C@@H](NC(=O)CNC(=O)[C@H](CCC(N)=O)NC(=O)[C@H](CO)NC(=O)[C@@H](N)Cc1c[nH]cn1)[C@@H](C)O)[C@@H](C)O)C(=O)N[C@@H](CC(=O)O)C(=O)N[C@@H](CCCCNC(=O)CC[C@H](NC(=O)COCCOCCNC(=O)COCCOCCNC(=O)CC[C@H](NC(=O)CC[C@H](NC(=O)CCCCCCCCCCCCCCCCC(=O)O)C(=O)O)C(=O)O)C(=O)O)C(=O)N[C@@H](CCCNC(=N)N)C(=O)N[C@@H](CCCNC(=N)N)C(=O)N[C@@H](C)C(=O)N[C@@H](CCC(N)=O)C(=O)N[C@@H](CC(=O)O)C(=O)N[C@@H](Cc1ccccc1)C(=O)N[C@H](C(=O)N[C@@H](CCC(N)=O)C(=O)N[C@@H](Cc1c[nH]c2ccccc12)C(=O)N[C@@H](CC(C)C)C(=O)N[C@@H](CC(C)C)C(=O)N[C@@H](CC(N)=O)C(=O)N[C@H](C(=O)O)[C@@H](C)O)C(C)C` [Example 78, N^ε16-[(4S)-4-carboxy-4-[[2-[2-[2-[[2-[2-[2-[[(4S)-4-carboxy-4-[[(4S)-4-carboxy-4-(17-carboxyheptadecanoylamino)butanoyl]amino]butanoyl]amino]ethoxy]ethoxy]acetyl]amino]ethoxy]ethoxy]acetyl]amino]butanoyl]-[Lys^16,Leu^27]-Glucagon] (H-HSQGTFTSDYSKYLDK([γGlu-AEEA-AEEA-γGlu-γGlu-C18 diacid])RRAQDFVQWLLNT-OH; N-terminus and C-terminus assumed): the concentration for a half-maximal effect (EC50) was 0.122 nM.

On to `CC(C)C[C@H](NC(=O)[C@H](CC(C)C)NC(=O)[C@H](Cc1c[nH]c2ccccc12)NC(=O)[C@H](CCCCNC(=O)COCCOCCNC(=O)COCCOCCNC(=O)CC[C@H](NC(=O)CCCCCCCCCCCCCCCCC(=O)O)C(=O)O)NC(=O)[C@@H](NC(=O)[C@H](Cc1ccccc1)NC(=O)[C@H](CC(=O)O)NC(=O)[C@H](CCC(N)=O)NC(=O)[C@H](C)NC(=O)[C@H](CCCNC(=N)N)NC(=O)[C@H](CCCNC(=N)N)NC(=O)[C@H](CCC(=O)O)NC(=O)[C@H](CC(=O)O)NC(=O)[C@H](CC(C)C)NC(=O)[C@H](Cc1ccc(O)cc1)NC(=O)[C@H](CCCCN)NC(=O)[C@H](CO)NC(=O)[C@H](Cc1ccc(O)cc1)NC(=O)[C@H](CC(=O)O)NC(=O)[C@H](CO)NC(=O)[C@@H](NC(=O)[C@H](Cc1ccccc1)NC(=O)[C@@H](NC(=O)CNC(=O)[C@H](CCC(N)=O)NC(=O)[C@H](CO)NC(=O)[C@@H](N)Cc1c[nH]cn1)[C@@H](C)O)[C@@H](C)O)C(C)C)C(=O)N[C@@H](C)C(=O)N[C@H](C(N)=O)[C@@H](C)O` [Example 32, N^ε24-([2-[2-[2-[[2-[2-[2-[[(4S)-5-hydroxy-4-[(18-hydroxy-18-oxooctadecanoyl)amino]-5-oxopentanoyl]amino]ethoxy]ethoxy]acetyl]amino]ethoxy]ethoxy]acetyl])[Glu^16, Lys^24, Leu^27, Ala^28] Glucagon peptide amide] (H-HSQGTFTSDYSKYLDERRAQDFVK([AEEA-AEEA-γGlu-C18 diacid])WLLAT-NH2; N-terminus assumed), for which the midpoint of the response, the EC50, lay at 0.0235 nM.

The molecule `CC(C)C[C@H](NC(=O)[C@H](Cc1ccc(O)cc1)NC(=O)[C@H](CCCCN)NC(=O)[C@H](CO)NC(=O)[C@H](Cc1ccc(O)cc1)NC(=O)[C@H](CC(=O)O)NC(=O)[C@H](CO)NC(=O)[C@@H](NC(=O)[C@H](Cc1ccccc1)NC(=O)[C@@H](NC(=O)CNC(=O)[C@H](CCC(N)=O)NC(=O)[C@H](CO)NC(=O)[C@@H](N)Cc1c[nH]cn1)[C@@H](C)O)[C@@H](C)O)C(=O)N[C@@H](CC(=O)O)C(=O)N[C@@H](CO)C(=O)N[C@@H](CCCNC(=N)N)C(=O)N[C@@H](CCCNC(=N)N)C(=O)N[C@@H](C)C(=O)N[C@@H](CCC(N)=O)C(=O)N[C@@H](CC(=O)O)C(=O)N[C@@H](Cc1ccccc1)C(=O)N[C@H](C(=O)N[C@@H](CCC(N)=O)C(=O)N[C@@H](CCCCNC(=O)CC[C@H](NC(=O)CC[C@H](NC(=O)COCCOCCNC(=O)COCCOCCNC(=O)CC[C@H](NC(=O)CCCCCCCCCCCCCCCCC(=O)O)C(=O)O)C(=O)O)C(=O)O)C(=O)N[C@@H](CC(C)C)C(=O)N[C@@H](CC(C)C)C(=O)N[C@@H](CC(N)=O)C(=O)N[C@H](C(=O)O)[C@@H](C)O)C(C)C` [Example 76, N^ε25-[(4S)-4-carboxy-4-[[(4S)-4-carboxy-4-[[2-[2-[2-[[2-[2-[2-[[(4S)-4-carboxy-4-(17-carboxyheptadecanoylamino)butanoyl]amino]ethoxy]ethoxy]acetyl]amino]ethoxy]ethoxy]acetyl]amino]butanoyl]amino]butanoyl]-[Lys^25,Leu^27]-Glucagon] gave an EC50 of 0.988 nM.
